We go through four compounds from ChEMBL document CHEMBL1158532, “A novel kavalactone derivative protects against H2O2-induced PC12 cell death via Nrf2/ARE activation” (Bioorg Med Chem, 2010).

For data set [1], the system named is PC-12. The experiment in a line: Induction of HO-1 protein expression in rat PC12 cells at 10 uM after 24 hrs by Western blot analysis. Format: functional, cell-based. (Immunoblotting shows a protein as a band on a membrane.)
The target of data set [2] is T1, Nuclear factor erythroid 2-related factor 2 (Rattus norvegicus) (UniProt O54968).
T1 sequence (whole entry): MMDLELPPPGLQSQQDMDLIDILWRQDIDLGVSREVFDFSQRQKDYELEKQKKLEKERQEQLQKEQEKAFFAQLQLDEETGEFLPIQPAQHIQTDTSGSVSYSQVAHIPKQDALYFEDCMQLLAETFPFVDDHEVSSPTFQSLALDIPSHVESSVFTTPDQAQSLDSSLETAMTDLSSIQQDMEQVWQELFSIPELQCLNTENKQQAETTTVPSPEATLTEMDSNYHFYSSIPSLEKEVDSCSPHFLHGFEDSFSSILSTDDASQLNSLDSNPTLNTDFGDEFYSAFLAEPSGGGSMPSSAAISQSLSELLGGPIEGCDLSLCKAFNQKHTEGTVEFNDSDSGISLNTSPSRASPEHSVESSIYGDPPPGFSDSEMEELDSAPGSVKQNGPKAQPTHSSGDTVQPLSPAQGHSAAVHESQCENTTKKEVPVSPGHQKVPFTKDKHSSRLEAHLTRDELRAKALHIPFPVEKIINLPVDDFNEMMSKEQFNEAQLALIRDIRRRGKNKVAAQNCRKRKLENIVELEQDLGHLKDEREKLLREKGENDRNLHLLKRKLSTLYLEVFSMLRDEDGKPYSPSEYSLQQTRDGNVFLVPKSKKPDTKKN
In words: Activation of Nrf2 in rat PC12 cells at 10 uM after 24 hrs by antioxidant response element-driven luciferase reporter gene assay. Format: functional, cell-based. The note with it: PC-12. In general terms: A reporter such as luciferase makes a cellular process visible.

Data set [3] relates to PC-12. In words: Induction of gamma-GCSc catalytic subunit protein expression in rat PC12 cells at 10 uM after 12 hrs by Western blot analysis. It counts as functional, cell-based.
Data set [4] addresses T1, Nuclear factor erythroid 2-related factor 2 (Rattus norvegicus). In words: Activation of Nrf2 in rat PC12 cells after 24 hrs by antioxidant response element-driven luciferase reporter gene assay relative to yangonin. Format: functional, cell-based. To be noted: PC-12.
The target is the same in data set [5]. The experiment in a line: Activation of Nrf2 in rat PC12 cells at 10 uM after 24 hrs by antioxidant response element-driven luciferase reporter gene assay relative to methysticin. It counts as functional, cell-based. To be noted: PC-12.
In data set [6] the test system is PC-12. The experiment in a line: Induction of HO-1 protein expression in rat PC12 cells at 10 uM after 24 hrs by Western blot analysis relative to control. It counts as functional.
Data set [7] deals with PC-12. The experiment in a line: Neuroprotective activity against H202-induced rat PC12 cell death at 10 uM treated 24 hrs before H202 challenge measured after 24 hrs by WST8 assay. It counts as functional, cell-based. Background: Tetrazolium dyes change colour on reduction, which living cells bring about.
Data set [8] relates to PC-12. In words: Induction of gamma-GCSc catalytic subunit protein expression in rat PC12 cells at 10 uM after 24 hrs by Western blot analysis relative to control. It counts as functional.
Data set [9] concerns the target T1, Nuclear factor erythroid 2-related factor 2 (Rattus norvegicus). In words: Activation of Nrf2 in rat PC12 cells assessed as induction of translocation into nucleus at 10 uM after 30 mins by Western blot analysis. Format: functional, cell-based. To be noted: PC-12.
Data set [10] deals with PC-12. The experiment in a line: Increase in p38 phosphorylation in rat PC12 cells at 10 uM after 5 mins by Western blot analysis. It counts as cell-based.
In data set [11] the test system is PC-12. In words: Increase in HO-1 protein expression in rat PC12 cells at 10 uM after 3 hrs by Western blot analysis. It counts as functional, cell-based.
Data set [12] concerns PC-12. In words: Induction of HO-1 protein expression in rat PC12 cells at 10 uM after 24 hrs by Western blot analysis relative to yangonin. Format: functional.
The subject of data set [13] is PC-12. The experiment in a line: Induction of Nrf2 release in rat PC12 cells assessed as increase in intracellular ROS level at 10 uM after 1 hr by CM-H2-DCFDA staining-based fluorescence assay. It counts as functional, cell-based.
Data set [14] relates to PC-12. In words: Increase in HO-1 protein expression in rat PC12 cells at 10 uM treated 24 hrs before H202 challenge measured after 24 hrs by Western blot analysis. Format: functional, cell-based.
In data set [15] the target is T2, Mitogen-activated protein kinase 1 and 3 (ERK2 and ERK1) (Rattus norvegicus) (UniProt P63086+P21708). In words: Increase in Erk1/2 phosphorylation in rat PC12 cells at 10 uM after 5 mins by Western blot analysis. To be noted: PC-12. Format: cell-based.
T2 sequence (P21708 whole entry, looked up): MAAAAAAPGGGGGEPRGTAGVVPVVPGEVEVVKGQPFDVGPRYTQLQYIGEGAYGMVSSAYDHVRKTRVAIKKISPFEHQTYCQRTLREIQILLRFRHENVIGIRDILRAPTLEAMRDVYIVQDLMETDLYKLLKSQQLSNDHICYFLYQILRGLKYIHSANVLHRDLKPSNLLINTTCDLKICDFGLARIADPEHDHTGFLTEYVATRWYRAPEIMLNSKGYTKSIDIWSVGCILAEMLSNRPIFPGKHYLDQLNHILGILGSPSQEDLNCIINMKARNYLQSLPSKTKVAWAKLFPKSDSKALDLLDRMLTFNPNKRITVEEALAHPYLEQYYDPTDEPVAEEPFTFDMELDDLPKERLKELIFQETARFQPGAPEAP
T2 sequence (P63086 whole entry, looked up): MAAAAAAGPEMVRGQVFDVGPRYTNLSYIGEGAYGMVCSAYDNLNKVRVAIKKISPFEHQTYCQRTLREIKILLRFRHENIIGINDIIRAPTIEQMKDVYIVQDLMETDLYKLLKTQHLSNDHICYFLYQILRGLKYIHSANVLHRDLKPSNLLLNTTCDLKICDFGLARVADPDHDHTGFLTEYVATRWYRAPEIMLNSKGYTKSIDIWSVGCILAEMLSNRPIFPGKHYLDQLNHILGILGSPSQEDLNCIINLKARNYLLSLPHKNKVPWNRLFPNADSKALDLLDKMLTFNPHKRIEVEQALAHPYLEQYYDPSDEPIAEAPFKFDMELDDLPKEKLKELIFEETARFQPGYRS
The subject of data set [16] is PC-12. In words: Cytotoxicity against rat PC12 cells assessed as effect on cellular morphology at 50 to 100 uM after 24 hrs by WST8 assay. It counts as cell-based. To be noted: pc-12, 24 h.
Data set [17] has as its target T1, Nuclear factor erythroid 2-related factor 2 (Rattus norvegicus). In words: Activation of Nrf2 in rat PC12 cells at 10 uM after 24 hrs by antioxidant response element-driven luciferase reporter gene assay relative to kawain. To be noted: PC-12. Format: functional, cell-based.
Data set [18] deals with PC-12. In words: Induction of HO-1 protein expression in rat PC12 cells at 10 uM after 3 hrs by Western blot analysis in presence of 5 uM p38 inhibitor SB-203580. It counts as functional, cell-based.
Data set [19] relates to PC-12. In words: Cytotoxicity against rat PC12 cells at 100 uM after 24 hrs by WST8 assay. Format: cell-based. To be noted: pc-12, 24 h.
The target of data set [20] is T1, Nuclear factor erythroid 2-related factor 2 (Rattus norvegicus). In words: Activation of Nrf2 in rat PC12 cells at 10 uM after 24 hrs by antioxidant response element-driven luciferase reporter gene assay relative to yangonin. It counts as functional, cell-based. The note with it: PC-12.
In data set [21] the test system is PC-12. The experiment in a line: Induction of Nrf2 release in rat PC12 cells assessed as increase in intracellular ROS level at 10 uM after 3 hrs by CM-H2-DCFDA staining-based fluorescence assay. Format: functional, cell-based.
Data set [22] has as its target T2, Mitogen-activated protein kinase 1 and 3 (ERK2 and ERK1) (Rattus norvegicus). In words: Increase in Erk1/2 phosphorylation in rat PC12 cells at 10 uM after 6 hrs by Western blot analysis. Format: cell-based. To be noted: PC-12.
Data set [23] relates to PC-12. The experiment in a line: Induction of HO-1 protein expression in rat PC12 cells at 10 uM after 3 hrs by Western blot analysis in presence of 2.5 […] N-acetyl-cysteine. It counts as functional, cell-based.
Data set [24] deals with PC-12. In words: Increase in NQO1 protein expression in rat PC12 cells at 10 uM after 3 hrs by Western blot analysis. Format: functional, cell-based.
For data set [25], the system named is PC-12. The experiment in a line: Induction of HO-1 protein expression in rat PC12 cells at 10 uM after 3 hrs by Western blot analysis in presence of 20 uM MEK1/2 inhibitor PD-98059. Format: functional, cell-based.
Data set [26] relates to PC-12. The experiment in a line: Induction of HO-1 protein expression in rat PC12 cells at 10 uM after 24 hrs by Western blot analysis relative to kawain. Format: functional.
Data set [27] deals with PC-12. The experiment in a line: Induction of NQO1 protein expression in rat PC12 cells at 10 uM after 24 hrs by Western blot analysis relative to control. It counts as functional.
In data set [28] the target is RAC-alpha serine/threonine-protein kinase (Rattus norvegicus) (UniProt P47196). The experiment in a line: Increase in Akt phosphorylation in rat PC12 cells at 10 uM after 24 hrs by Western blot analysis. It counts as cell-based. To be noted: PC-12.
RAC-alpha serine/threonine-protein kinase (Rattus norvegicus), sequence (P47196 whole entry): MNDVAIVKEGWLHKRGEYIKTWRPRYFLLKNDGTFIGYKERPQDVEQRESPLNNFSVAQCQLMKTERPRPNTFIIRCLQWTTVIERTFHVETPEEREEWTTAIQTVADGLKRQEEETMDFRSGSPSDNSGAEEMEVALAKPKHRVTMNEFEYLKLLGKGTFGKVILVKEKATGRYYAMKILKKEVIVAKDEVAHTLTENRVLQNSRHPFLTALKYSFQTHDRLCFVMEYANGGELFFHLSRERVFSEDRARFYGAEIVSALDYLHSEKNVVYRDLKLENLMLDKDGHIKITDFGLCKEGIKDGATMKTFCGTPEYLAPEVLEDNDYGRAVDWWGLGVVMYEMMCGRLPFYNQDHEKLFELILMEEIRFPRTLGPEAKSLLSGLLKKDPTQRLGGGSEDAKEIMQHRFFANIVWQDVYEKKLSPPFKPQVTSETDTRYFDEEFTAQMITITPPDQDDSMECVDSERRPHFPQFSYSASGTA
The target of data set [29] is T1, Nuclear factor erythroid 2-related factor 2 (Rattus norvegicus). The experiment in a line: Activation of Nrf2 in rat PC12 cells assessed as induction of translocation into nucleus at 10 uM after 24 hrs by Western blot analysis. To be noted: PC-12. Format: functional, cell-based.
For data set [30], the system named is PC-12. In words: Induction of HO-1 protein expression in rat PC12 cells at 10 uM after 24 hrs by Western blot analysis relative to methysticin. Format: functional.

Molecules are shown by their SMILES. Activity calls are given as the source filed them. The calls are words filed in the database; no cut-off is given here.

As to `COC1=CC(=O)O[C@@H](/C=C/c2ccccc2)C1`, the result (in the data set with PC-12 [1]; in data set [2]) was Active.
As for `COC1=CC(=O)O[C@@H](/C=C/c2ccc3c(c2)OCO3)C1`, the result (in the data set on PC-12 [1]; in data set [2]) was Active.
On to `COc1ccc(/C=C/c2cc(OC)cc(=O)o2)cc1`, for which the result (in the data set with PC-12 [1]; in data set [2]) was Active.
Turning to `COCc1c(OC)cc(=O)oc1/C=C/c1c(Cl)cccc1Cl`, the result (in the data set with PC-12 [3]; with PC-12 [7]; in data set [9]; in the data set with PC-12 [10]; in the data set on PC-12 [11]; with PC-12 [13]) was Active. The result (with PC-12 [14]; in [15]; in the data set with PC-12 [24]; in data set [29]) was Active. Moreover, the Activity result in data set [4] is “Dose-dependent effect”; in the data set with PC-12 [16], “Toxic”; with PC-12 [19], “Non-toxic”. The fold change (FC) turned out to be 2 in data set [5]; 2 in the data set with PC-12 [6]; 2 in the data set on PC-12 [8]; 3 with PC-12 [12]; 2 in data set [17]; 2 in data set [20]. For the same compound, the “fold change (FC)” value is recorded as 3 in the data set on PC-12 [26], 1.3 in the data set with PC-12 [27] and 3 with PC-12 [30]. Further, the outcome (with PC-12 [18]; in the data set with PC-12 [21]; in data set [22]; in the data set on PC-12 [23]; in the data set with PC-12 [25]; in data set [28]) was inactive.
